Experimental data as given in patent US6632829B2, “Sulfonamides and derivatives thereof that modulate the activity of endothelin” (Texas Biotechnology Corp., priority 1996, dated 2003).

Legend:
human ETB receptor = molecular target: T1, human ETB receptor (Homo sapiens, UniProt P24530); assay: Endothelin binding inhibition, Binding Test #2: competition with 125I-ET-1 for ETB receptors on transfected COS7 cell membranes
T1 construct: expressed in transfected cells; host or cells: COS7 cells
T1 sequence (P24530 27-442): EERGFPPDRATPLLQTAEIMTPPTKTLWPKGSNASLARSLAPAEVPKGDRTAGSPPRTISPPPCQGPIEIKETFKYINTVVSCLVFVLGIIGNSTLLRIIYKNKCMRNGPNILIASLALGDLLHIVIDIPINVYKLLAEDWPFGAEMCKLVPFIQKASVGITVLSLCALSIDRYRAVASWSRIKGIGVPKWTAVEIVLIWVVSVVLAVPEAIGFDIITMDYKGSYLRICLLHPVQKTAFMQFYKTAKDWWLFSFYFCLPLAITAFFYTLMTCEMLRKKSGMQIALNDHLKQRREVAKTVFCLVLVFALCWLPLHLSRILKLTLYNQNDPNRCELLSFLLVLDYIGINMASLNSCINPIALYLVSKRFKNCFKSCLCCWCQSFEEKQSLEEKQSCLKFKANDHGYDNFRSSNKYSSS
Procedure, shortened: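 Membranes from COS7 cells transfected with human ETB receptor, prepared in HEPES pH 7.4 with aprotinin, MnCl2/DNase treatment at 37° C for 30 min. Test compounds compete with 125I-labeled ET-1 for receptor binding; membrane used at 1 μg/50 μL binding buffer.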

human ETA receptors = molecular target: T2, human ETA receptors (Homo sapiens, UniProt P25101); assay: Endothelin binding inhibition, Binding Test #1: competition with 125I-ET-1 for ETA receptors on TE 671 cell membranes
T2 construct: endogenous in cells; host or cells: TE 671 cells (ATCC HTB 139), membrane preparation
T2 sequence (P25101 21-427): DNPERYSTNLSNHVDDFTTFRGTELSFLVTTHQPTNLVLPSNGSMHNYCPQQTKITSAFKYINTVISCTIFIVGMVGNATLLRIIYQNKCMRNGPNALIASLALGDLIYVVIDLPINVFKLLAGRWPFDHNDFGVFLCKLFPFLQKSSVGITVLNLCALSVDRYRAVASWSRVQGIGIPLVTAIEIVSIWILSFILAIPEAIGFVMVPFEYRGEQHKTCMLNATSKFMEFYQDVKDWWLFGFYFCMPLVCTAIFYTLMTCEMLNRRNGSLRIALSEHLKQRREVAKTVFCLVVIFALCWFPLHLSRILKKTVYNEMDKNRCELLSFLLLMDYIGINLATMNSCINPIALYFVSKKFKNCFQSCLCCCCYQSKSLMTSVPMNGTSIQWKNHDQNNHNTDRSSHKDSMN

[1] = incubation at 24° C. (values marked †)
[2] = incubation at 4° C. (values without †)

Compound | IC50 (human ETB receptor; [1]) [nM] | IC50 (human ETA receptors; [1]) [nM] | inhibition at 100 µM (human ETB receptor; read-out: ETB % inhibition @ 100 μM, @ 100 μM, incubation at 24° C.) [%] | IC50 (human ETB receptor; [2]) [nM] | IC50 (human ETA receptors; [2]) [nM]
COc1ccc(OC(=O)c2sccc2S(=O)(=O)Nc2onc(C)c2Cl)cc1 [N-(4-chloro-3-methyl-5-isoxazolyl)-2-[(4-methoxyphenoxy)carbonyl]thiophene-3-sulfonamide] | 15000 | 23 | – | – | –
Cc1noc(NS(=O)(=O)c2ccsc2C(=O)N2CCN(Cc3ccc4c(c3)OCO4)CC2)c1Cl [N-(4-chloro-3-methyl-5-isoxazolyl)-2-{[4-(3,4-methylenedioxybenzyl)piperazin-1-yl]carbonyl}thiophene-3-sulfonamide] | > 100000 | 20000 | – | – | –
COc1ccc(Cc2sc3ccccc3c2S(=O)(=O)Nc2onc(C)c2Br)cc1OC [N-(4-bromo-3-methyl-5-isoxazolyl)-2-(3,4-dimethoxybenzyl)benzo[b]thiophene-3-sulfonamide] | 2940 ± 1320 | 21 ± 17 | – | – | –
Cc1cc(C)c(C(=O)O)c(C)c1NC(=O)c1sccc1S(=O)(=O)Nc1onc(C)c1Cl [N-(4-chloro-3-methyl-5-isoxazolyl)-2-(3-carboxyl-2,4,6-trimethylphenylaminocarbonyl)thiophene-3-sulfonamide] | 22400 | 11.9 | – | – | –
Cc1ccc(OC(=O)c2sccc2S(=O)(=O)Nc2onc(C)c2Cl)cc1 [N-(4-chloro-3-methyl-5-isoxazolyl)-2-[(4-methylphenoxy)carbonyl]thiophene-3-sulfonamide] | – | 3200 | 43 | – | –
Cc1noc(NS(=O)(=O)c2ccsc2CC(c2ccc3c(c2)OCO3)N(C)C)c1Cl (stereo not drawn) [N-(4-chloro-3-methyl-5-isoxazolyl)-2-[β-(dimethylamino)-3,4-(methylenedioxy)phenethy]thiophene-3-sulfonamide] | ~100000 | 20900 | – | – | –
Cc1noc(NS(=O)(=O)c2c(C)sc3ccccc23)c1C [N-(3,4-dimethyl-5-isoxazolyl)-2-methylbenzo[b]thiophene-3-sulfonamide] | – | – | – | 16600 | 167
Cc1cc(CCC(C)C)ccc1-c1ccsc1S(=O)(=O)Nc1onc(C)c1Br [N-(4-bromo-3-methyl-5-isoxazolyl)-3-(4-iso-pentyl-2-methylphenyl)thiophene-2-sulfonamide] | 2400 | 107 | – | – | –
Cc1noc(NS(=O)(=O)c2ccsc2C(=O)Nc2ccc3c(c2)OCO3)c1Cl [N-(4-chloro-3-methyl-5-isoxazolyl)-2-[3,4-(methylenedioxy)]phenylaminocarbonyl-3-thiophenesulfonamide] | 9200 | 7.3 | – | – | –
Cc1noc(NS(=O)(=O)c2sccc2C(=O)Nc2ccccc2)c1C [N-(3,4-dimethyl-5-isoxazolyl))-3-(phenylaminocarbonyl)thiophene-2-sulfonamide] | – | – | – | > 100000 | 163
COc1cc(Cc2sc3ccccc3c2S(=O)(=O)Nc2onc(C)c2Br)cc(OC)c1OC [N-(4-bromo-3-methyl-5-isoxazolyl)-2-(3,4,5-trimethoxybenzyl)-benzo[b]thiophene-3-sulfonamide] | 1200 | 13 | – | – | –
CCc1ccc(Cc2sc3ccccc3c2S(=O)(=O)Nc2onc(C)c2Br)cc1 [N-(4-bromo-3-methyl-5-isoxazolyl)-2-(4-ethylbenzyl)benzo[b]thiophene-3-sulfonamide] | 1100 | 48 | – | – | –
CCCc1cc2c(cc1OCc1sccc1S(=O)(=O)Nc1onc(C)c1Br)OCO2 [N-(4-bromo-3-methyl-5-isoxazolyl)-2-{[4,5-(methylenedioxy)-2-propylphenoxy]methyl}thiophene-3-sulfonamide] | 407 | 107 | – | – | –
Cc1cc(NC(=O)c2sccc2S(=O)(=O)Nc2onc(C)c2Cl)no1 [N-(4-chloro-3-methyl-5-isoxazolyl)-2-[(5-methyl-3-isoxazolyl)aminocarbonyl]thiophene-3-sulfonamide] | 92000 | 56 | – | – | –
Cc1cc(C)c(NC(=O)c2sccc2S(=O)(=O)Nc2onc(C)c2Cl)c(-c2ccccc2)c1 [N-(4-chloro-3-methyl-5-isoxazolyl)-2-(2-phenyl-4,6-dimethylphenylaminocarbonyl)thiophene-3-sulfonamide] | 29500 | 15.9 | – | – | –
Cc1ccc(OC(=O)c2sccc2S(=O)(=O)Nc2onc(C)c2Cl)c(C)c1 [N-(4-chloro-3-methyl-5-isoxazolyl)-2-[(2,4-dimethylphenoxy)carbonyl]thiophene-3-sulfonamide] | 68500 | 648 | – | – | –

Compound | IC50 (human ETB receptor; [1]) [nM] | IC50 (human ETA receptors; [1]) [nM] | inhibition at 100 µM (human ETB receptor; read-out: ETB % inhibition @ 100 μM, @ 100 μM, incubation at 24° C.) [%] | IC50 (human ETB receptor; [2]) [nM] | IC50 (human ETA receptors; [2]) [nM]
Cc1noc(NS(=O)(=O)c2ccsc2C(=O)C(O)c2ccc3c(c2)OCO3)c1Cl (stereo not drawn) [N-(4-chloro-3-methyl-5-isoxazolyl)-2-{α-hydroxy-[3,4-(methylenedioxy)phenyl]acetyl}thiophene-3-sulfonamide] | 30000 | 2500 | – | – | –
Cc1noc(NS(=O)(=O)c2ccsc2C(=O)N(C)c2ccccc2)c1Br [N-(4-bromo-3-methyl-5-isoxazolyl)-2-[(methyl)phenylaminocarbonyl]thiophene-3-sulfonamide] | – | – | – | 16000 | 188
Cc1noc(NS(=O)(=O)c2ccsc2C(=O)Oc2ccc3c(c2)OCO3)c1Br [N-(4-bromo-3-methyl-5-isoxazolyl)-2-[(3,4-methylenedioxy)phenoxycarbonyl]thiophene-3-sulfonamide] | 6000 | 7.3 | – | – | –
N-(4-chloro-3-methyl-5-isoxazolyl)-2-[β-acetoxy-2-methyl-4,5-(methylenedioxy)styryl]thiophene-3-sulfonamide | 3740 | – | – | – | 5.44
Cc1ccc(CC(=O)c2sccc2S(=O)(=O)Nc2onc(C)c2Br)c(C)c1 [N-(4-bromo-3-methyl-5-isoxazolyl)-2-(2,4-dimethylphenylacetyl)thiophene-3-sulfonamide] | 3600 | 0.8 | – | – | –
Cc1noc(NS(=O)(=O)c2ccsc2C(=O)Cc2ccc3c(c2)OCO3)c1Br [N-(4-bromo-3-methyl-5-isoxazolyl)-2-[(3,4-methylenedioxy)phenylacetyl]thiophene-3-sulfonamide] | 5500 | 9.1 | – | – | –
Cc1noc(NS(=O)(=O)c2c(Cc3ccc4c(c3)OCO4)sc3ccccc23)c1Cl [N-(4-chloro-3-methyl-5-isoxazolyl)-2-[(3,4-methylenedioxy)benzyl]benzo[b]thiophene-3-sulfonamide] | 936 ± 95 | 11 ± 5 | – | – | –
Cc1cc(C)c(OC(=O)c2sccc2S(=O)(=O)Nc2onc(C)c2Br)c(C)c1 [N-(4-bromo-3-methyl-5-isoxazolyl)-2-[(2,4,6-trimethylphenoxy)carbonyl]thiophene-3-sulfonamide] | 24500 | 479 | – | – | –
Cc1ccc(CCc2sccc2S(=O)(=O)Nc2onc(C)c2Br)cc1 [N-(4-bromo-3-methyl-5-isoxazolyl)-2-[(4-methyl)phenethyl]thiophene-3-sulfonamide] | 40100 | 106 | – | – | –
Cc1noc(NS(=O)(=O)c2c(-c3ccc4c(c3)OCO4)sc3ccccc23)c1Cl [N-(4-chloro-3-methyl-5-isoxazolyl)-2-[3,4-(methylenedioxy)phenyl]benzo[b]thiophene-3-sulfonamide] | 52600 | 550 | – | – | –
Cc1noc(NS(=O)(=O)c2c(-c3ccccc3C#N)sc3ccccc23)c1Cl [N-(4-chloro-3-methyl-5-isoxazolyl)-2-[2-(cyano)phenyl]benzo[b]thiophene-3-sulfonamide] | 8820 | 6330 | – | – | –
Cc1noc(NS(=O)(=O)c2ccsc2COc2ccc3c(c2Cl)OCO3)c1Br [N-(4-bromo-3-methyl-5-isoxazolyl)-2-[(2-chloro-3,4-methylenedioxy)phenoxymethyl]thiophene-3-sulfonamide] | 760 | 13000 | – | – | –
Cc1noc(NS(=O)(=O)c2ccsc2C(=O)Nc2cccc(C(=O)O)c2)c1Br [N-(4-bromo-3-methyl-5-isoxazolyl)-2-[(3-carboxyphenyl)aminocarbonyl]thiophene-3-sulfonamide] | > 100000 | 62 | – | – | –
Cc1noc(NS(=O)(=O)c2ccsc2Cc2ccc3c(c2)OCO3)c1Br [N-(4-bromo-3-methyl-5-isoxazolyl)-2-[(3,4-methylenedioxy)benzyl]thiophene-3-sulfonamide] | 7700 | 270 | – | – | –
Cc1cc(C)c(C=CCc2ccsc2S(=O)(=O)Nc2onc(C)c2Br)c(C)c1 [N-(4-bromo-3-methyl-5-isoxazolyl)-3-(2,4,6-trimethylcinnamyl)thiophene-2-sulfonamide] | 1860 | 49 | – | – | –
Cc1noc(NS(=O)(=O)c2ccsc2C(=O)Nc2cc3c(cc2OCCO)OCO3)c1Cl [N-(4-chloro-3-methyl-5-isoxazolyl)-2-[3,4-(methylenedioxy)-6-(2-hydroxyethoxy)phenylaminocarbonyl]thiophene-3-sulfonamide] | ~18000 | ~10 | – | – | –
